# How the values were obtained:
# 60 cancer cell lines = details: NCI 60 cell line data; cited from earlier work
# SKOV3 cells = test: time-lapse tracking of cell fate, GFP-Histone 2B SKOV3 cells; assay type: cell-based; details: SKOV3, 20 random cells tracked, 0.5 μM Taxol, FIG. 3a
# Procedure: FIG. 3a is a bar graph showing the percentages of 20 random cells tracked to assess their fate: complete mitosis, death from mitosis, decondensation (uncertain fate) and death from decondensation.
# The data used to construct the chart was obtained by time-lapse movies of cells marked with GFP-Histone 2B. Movies were collected on cell populations treated with two different mp2 stimulus compounds at various concentrations, as well as on DMSO-treated (control) cells, cells treated with 0.5 μM Taxol, and cells treated with compounds that produce a rice phenotype. […] It is believed that most of these cells would eventually die.
compound,measurement,setting,value
"CC(=O)O[C@H]1C(=O)[C@@]2(C)[C@H]([C@H](OC(=O)c3ccccc3)[C@]3(O)C[C@H](OC(=O)[C@H](O)[C@@H](NC(=O)c4ccccc4)c4ccccc4)C(C)=C1C3(C)C)[C@]1(OC(C)=O)CO[C@@H]1C[C@@H]2O [Taxol, paclitaxel]",potency differences between cell types,60 cancer cell lines,over 3 orders of magnitude
same,cell fate after treatment,SKOV3 cells,the highest number of cells die directly from mitosis
